According to patent US5053070A, “Pyrimidine derivatives, preparation processes thereof, herbicide containing the same, and herbicidal compositions containing the same along with other active ingredient” (Mitsui Toatsu Chemicals, Incorporated, priority 1988, dated 1991):
Like-named read-outs stand apart in the source and are kept apart here.

What was measured:
Format in all cases: in vivo
[1] = test system: redroot pigweed; assay: Upland foliar application test by mixed formulations (Test 7); details: Amaranthus retroflexus, 720 h, read-out: Herbicidal effects (%) Redrood pigweed Ea
Protocol: (§1) Resin-made 1/10,000-are pots were filled with the soil of an upland field. Redroot pigweed, morningglories, johnsongrass, barnyardgrass and green foxtail were separately seeded and were allowed to germinate in a green house. When each plant grew to the stage of 2-3 leaves, an emulsion formulated from predetermined amounts of two test compounds of different kinds in a similar manner to the method described in Formulation Example 16 was diluted with water to a predetermined dilution rate and then sprayed at an application rate equal to 5 l per are onto the foliage of each plant by means of a pressure-operated ULV (ultra low volume) sprayer. Influence to the weeds were observed on the 30th day after the spray of the herbicides. In the table, each Ea means an acutally measured value of herbicidal activities when two kinds of herbicides were mixed. Each Ec is an expected value for herbicidal activities, calculated in accordance with the below-described calculation formula proposed by Colby et al. [Colby, S. R., Weed 15, 20-22 (1967)]. Ea>Ec indicates the existence of synergistic action while […] action. [formula] Ec: Growth inhibition rate (%) expected when Ingredient I and Ingredient II are mixed.
(§2) Ex: Growth inhibition rate (%) when treated with Ingredient I alone.
(§3) Ey: Growth inhibition rate (%) when treated with Ingredient II alone.

[2] = test system: johnsongrass; assay: as above; details: Sorghum halepense, 720 h; for pest or weed control at 300 g/ha: read-out: Herbicidal effects (%) Johnsongrass Ea, applied alone, 0.3 kg/ha, foliar, 30th day; for pest or weed control at 500 g/ha: read-out: Herbicidal effects (%) Johnsongrass Ea, applied alone, 0.5 kg/ha, foliar, 30th day
Protocol: as §1, §2, §3

[3] = test system: redroot pigweed; assay: Upland foliar application test by mixed formulations, concentration gradient (Test 8); details: Amaranthus retroflexus, 960 h, read-out: Herbicidal effects Redrood pigweed Ea
Protocol: (§4) Resin-made 1/10,000-are pots were filled with the soil of an upland field. Redroot pigweed and johnsongrass were separately seeded and were allowed to germinate in a green house. When each plant grew to the stage of 2-3 leaves, emulsions formulated with concentration gradient from predetermined amounts of two test compounds of different kinds in a similar manner to the method described in Formulation Example 16 was diluted with water to a predetermined dilution rate and then sprayed at an application rate equal to 5 l per are onto the foliage of each plant by means of a pressure-operated ULV (ultra low volume) sprayer. Influence to the weeds were observed on the 40th day after the spray of the herbicides. The results are shown in Table 9, In the table, Ea have the same meanings as in Test 7, and Ea>Ec indicates the existence of synergistic action while Ea<Ec indicates the existence of antagonistic action.

[4] = test system: johnsongrass; assay: as above; details: Sorghum halepense, 960 h, read-out: Herbicidal effects Johnsongrass Ea
Protocol: as §4

[5] = test system: morningglories; assay: Upland foliar application test by mixed formulations (Test 7); details: Ipomoea, 720 h, read-out: Herbicidal effects (%) Morningglory Ea
Protocol: as §1, §2, §3

[6] = test system: green foxtail; assay: as above; details: Setaria viridis, 720 h, read-out: Herbicidal effects (%) Green foxtail Ea
Protocol: as §1, §2, §3

[7] = test system: barnyardgrass; assay: as above; details: Echinochloa crus-galli, 720 h, read-out: Herbicidal effects (%) Barnyardgrass Ea
Protocol: as §1, §2, §3

[8] = applied alone, 0.2 kg/ha, 30th day

CN(C)C(=O)Nc1ccc(Cl)c(Cl)c1 [diuron, 3-(3,4-dichlorophenyl)-1,1-dimethylurea]
pest or weed control at 300 g/ha [1]: 40% | pest or weed control at 300 g/ha [2]: 10% | pest or weed control at 200 g/ha [3]: 30% | pest or weed control at 400 g/ha [3]: 70% | pest or weed control at 800 g/ha [3]: 85% | pest or weed control at 200 g/ha [4]: 0% | pest or weed control at 400 g/ha [4]: 10% | pest or weed control at 800 g/ha [4]: 20%

CN(C)C(=O)Nc1cccc(C(F)(F)F)c1 [fluometuron, 1,1-dimethyl-3-(3-trifluoromethylphenyl)urea]
pest or weed control at 500 g/ha [1]: 30% | pest or weed control at 500 g/ha [2]: 30% | pest or weed control at 200 g/ha [3]: 20% | pest or weed control at 400 g/ha [3]: 30% | pest or weed control at 800 g/ha [3]: 50% | pest or weed control at 200 g/ha [4]: 0% | pest or weed control at 400 g/ha [4]: 10% | pest or weed control at 800 g/ha [4]: 20%

CON(C)C(=O)Nc1ccc(Cl)c(Cl)c1 [linuron, 3-(3,4-dichlorophenyl)-1-methoxy-1-methylurea]
pest or weed control at 300 g/ha [5]: 30% | pest or weed control at 300 g/ha [2]: 10% | pest or weed control at 200 g/ha [3]: 40% | pest or weed control at 400 g/ha [3]: 70% | pest or weed control at 800 g/ha [3]: 85% | pest or weed control at 200 g/ha [4]: 0% | pest or weed control at 400 g/ha [4]: 10% | pest or weed control at 800 g/ha [4]: 20%

CCc1cccc(C)c1N(C(=O)CCl)C(C)COC (stereo not shown) [metolachlor, 2-chloro-2'-ethyl-6'-methyl-N-(2-methoxy-1-methylethyl)acetanilide, reference compound]
pest or weed control at 1000 g/ha [1]: 40% | pest or weed control at 1000 g/ha [6]: 10%

CSc1nnc(C(C)(C)C)c(=O)n1N [metribuzin, 4-amino-6-tert-butyl-3-methylthio-1,2,4-triazin-5(4H)-one, reference compound]
pest or weed control at 200 g/ha [1, 8]: 30% | pest or weed control at 200 g/ha [6, 8]: 10%

O=C(O)c1ccccc1C(=O)Nc1cccc2ccccc12 [naptalam, 2-(1-naphthalenylaminocarbonyl)benzoic acid]
pest or weed control at 1000 g/ha [1]: 10% | pest or weed control at 1000 g/ha ([2]; read-out: Herbicidal effects (%) Johnsongrass Ea, applied alone, 1 kg/ha, foliar, 30th day): 10% | pest or weed control at 400 g/ha [3]: 0% | pest or weed control at 800 g/ha [3]: 10% | pest or weed control at 1600 g/ha [3]: 20% | pest or weed control at 400 g/ha [4]: 0% | pest or weed control at 800 g/ha [4]: 10% | pest or weed control at 1600 g/ha [4]: 20%

CSc1nc(NC(C)C)nc(NC(C)C)n1 [prometryn, 2-methylthio-4,6-bis(isopropylamino)-1,3,5-triazine]
pest or weed control at 500 g/ha [5]: 30% | pest or weed control at 500 g/ha [2]: 20% | pest or weed control at 200 g/ha [3]: 10% | pest or weed control at 400 g/ha [3]: 20% | pest or weed control at 800 g/ha [3]: 40% | pest or weed control at 200 g/ha [4]: 0% | pest or weed control at 400 g/ha [4]: 10% | pest or weed control at 800 g/ha [4]: 20%

CCC(=O)Nc1ccc(Cl)c(Cl)c1 [propanil, N-(3,4-dichlorophenyl)propanamide]
pest or weed control at 3000 g/ha ([2]; read-out: Herbicidal effects (%) Johnsongrass Ea, applied alone, 3 kg/ha, foliar, 30th day): 10% | pest or weed control at 3000 g/ha [7]: 40% | pest or weed control at 2000 g/ha [3]: 30% | pest or weed control at 4000 g/ha [3]: 70% | pest or weed control at 8000 g/ha [3]: 70% | pest or weed control at 2000 g/ha [4]: 20% | pest or weed control at 4000 g/ha [4]: 30% | pest or weed control at 8000 g/ha [4]: 50%

CCC/C(=N\OCC)C1=C(O)CC(CC(C)SCC)CC1=O (stereo not shown) [sethoxydim, reference compound]
pest or weed control at 200 g/ha [5]: 0% | pest or weed control at 200 g/ha [1]: 0% | pest or weed control at 200 g/ha ([2]; read-out: Herbicidal effects (%) Johnsongrass Ea, applied alone, 0.2 kg/ha, foliar, 30th day): 95% | pest or weed control at 200 g/ha [7]: 0% | pest or weed control at 200 g/ha [6]: 100% | pest or weed control at 100 g/ha [3]: 0% | pest or weed control at 200 g/ha [3]: 0% | pest or weed control at 100 g/ha [4]: 70% | pest or weed control at 200 g/ha [4]: 85%
